Experiment in all cases: relative viability (nuclei count vs DMSO), 5 days (fraction); higher = more cells survive
Compound in the test “Ibrutinib + Tozasertib”: C=CC(=O)N1CCC[C@@H](n2nc(-c3ccc(Oc4ccccc4)cc3)c3c(N)ncnc32)C1 [Ibrutinib] + Cc1cc(Nc2cc(N3CCN(C)CC3)nc(Sc3ccc(NC(=O)C4CC4)cc3)n2)n[nH]1 [Tozasertib] (partner 0.1 µM)
In a few lines:
(§1)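 Lung cancer cell lines were pin-tool dosed in 1536-well plates on the day after seeding, with either a lone drug or a fixed anchor-drug dose plus five library-drug doses (not always all listed) in √10 steps. Nuclei were counted on 4× images after 5 days. Relative viability is the ratio of treated-well to vehicle-well nuclei counts, with each value a median of duplicate plates.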

Compound in the test “BMX-IN-1 + OSI-027”: C=CC(=O)Nc1cc(-n2c(=O)ccc3cnc4ccc(-c5ccc(NS(C)(=O)=O)cc5)cc4c32)ccc1C [BMX-IN-1] + COc1cccc2cc(-c3nc([C@H]4CC[C@H](C(=O)O)CC4)n4ncnc(N)c34)[nH]c12 [OSI-027] (partner 0.5 µM)
The method, boiled down:
as §1

Compound in the test “PAC-1 + Pictilisib”: C=CCc1cccc(/C=N/NC(=O)CN2CCN(Cc3ccccc3)CC2)c1O [PAC-1] + CS(=O)(=O)N1CCN(Cc2cc3nc(-c4cccc5[nH]ncc45)nc(N4CCOCC4)c3s2)CC1 [Pictilisib] (partner 1 µM)
In a few lines:
as §1

Compound in the test “PAC-1 + Vorinostat”: C=CCc1cccc(/C=N/NC(=O)CN2CCN(Cc3ccccc3)CC2)c1O [PAC-1] + O=C(CCCCCCC(=O)Nc1ccccc1)NO [Vorinostat] (partner 1 µM)
In a few lines: as §1

For the cell line NCI-H2085, the relative viability with Ibrutinib + Tozasertib (first compound 0.005 µM) was determined as 0.853; in the test with Ibrutinib + Tozasertib (first compound 0.01581 µM) it was 0.628; with Ibrutinib + Tozasertib (first compound 0.05 µM), 0.623; in the test with Ibrutinib + Tozasertib (first compound 0.1581 µM), 0.855; with Ibrutinib + Tozasertib (first compound 0.5 µM) it was 0.697; with BMX-IN-1 + OSI-027 (first compound 0.02 µM) it was 0.743. Also, the relative viability in the test with BMX-IN-1 + OSI-027 (first compound 0.2 µM) came out at 0.748; with BMX-IN-1 + OSI-027 (first compound 0.6325 µM) it was 0.696; in the test with BMX-IN-1 + OSI-027 (first compound 2 µM), 0.745; with PAC-1 + Pictilisib (first compound 0.02 µM), 0.446; with PAC-1 + Pictilisib (first compound 0.06325 µM) it was 0.518; with PAC-1 + Pictilisib (first compound 0.2 µM) it was 0.422. Moreover, the relative viability with PAC-1 + Pictilisib (first compound 2 µM) was 0.485; with PAC-1 + Vorinostat (first compound 0.02 µM) it was 0.791; with PAC-1 + Vorinostat (first compound 0.06325 µM) it was 0.789; with PAC-1 + Vorinostat (first compound 0.2 µM), 0.737; with PAC-1 + Vorinostat (first compound 2 µM), 0.822.

NCI-H2228: the relative viability with Ibrutinib + Tozasertib (first compound 0.005 µM) amounted to 0.282; with Ibrutinib + Tozasertib (first compound 0.05 µM), 0.253; with Ibrutinib + Tozasertib (first compound 0.1581 µM), 0.307; with Ibrutinib + Tozasertib (first compound 0.5 µM) it was 0.187; with BMX-IN-1 + OSI-027 (first compound 0.02 µM), 0.595; in the test with BMX-IN-1 + OSI-027 (first compound 0.2 µM), 0.673. Further, the relative viability in the test with BMX-IN-1 + OSI-027 (first compound 0.6325 µM) worked out at 0.789; with BMX-IN-1 + OSI-027 (first compound 2 µM) it was 0.529; in the test with PAC-1 + Pictilisib (first compound 0.02 µM), 0.42; in the test with PAC-1 + Pictilisib (first compound 0.06325 µM), 0.507; with PAC-1 + Pictilisib (first compound 0.2 µM), 0.397; in the test with PAC-1 + Pictilisib (first compound 2 µM) it was 0.362. The relative viability was determined as 0.699 in the test with PAC-1 + Vorinostat (first compound 0.02 µM), 0.932 with PAC-1 + Vorinostat (first compound 0.06325 µM), 0.546 in the test with PAC-1 + Vorinostat (first compound 0.2 µM) and 0.504 with PAC-1 + Vorinostat (first compound 2 µM).

On to LU99A, for which the relative viability came out at 0.264 with Ibrutinib + Tozasertib (first compound 0.005 µM); 0.279 in the test with Ibrutinib + Tozasertib (first compound 0.01581 µM); 0.285 with Ibrutinib + Tozasertib (first compound 0.05 µM); 0.258 with Ibrutinib + Tozasertib (first compound 0.1581 µM); 0.278 in the test with Ibrutinib + Tozasertib (first compound 0.5 µM); 0.321 with BMX-IN-1 + OSI-027 (first compound 0.02 µM). The relative viability came to 0.289 with BMX-IN-1 + OSI-027 (first compound 0.2 µM); 0.329 with BMX-IN-1 + OSI-027 (first compound 0.6325 µM); 0.298 with BMX-IN-1 + OSI-027 (first compound 2 µM); 0.32 with PAC-1 + Pictilisib (first compound 0.02 µM); 0.271 with PAC-1 + Pictilisib (first compound 0.06325 µM); 0.313 with PAC-1 + Pictilisib (first compound 0.2 µM). Further, the relative viability was 0.322 with PAC-1 + Pictilisib (first compound 2 µM); 0.502 in the test with PAC-1 + Vorinostat (first compound 0.02 µM); 0.448 in the test with PAC-1 + Vorinostat (first compound 0.06325 µM); 0.429 in the test with PAC-1 + Vorinostat (first compound 0.2 µM); 0.502 in the test with PAC-1 + Vorinostat (first compound 2 µM).

In the case of NCI-H522, the relative viability was found to be 0.503 with Ibrutinib + Tozasertib (first compound 0.005 µM); 0.521 with Ibrutinib + Tozasertib (first compound 0.01581 µM); 0.476 with Ibrutinib + Tozasertib (first compound 0.05 µM); 0.55 with Ibrutinib + Tozasertib (first compound 0.1581 µM); 0.46 with Ibrutinib + Tozasertib (first compound 0.5 µM); 0.673 with BMX-IN-1 + OSI-027 (first compound 0.02 µM). In addition, the relative viability with BMX-IN-1 + OSI-027 (first compound 0.2 µM) was found to be 0.74; with BMX-IN-1 + OSI-027 (first compound 0.6325 µM), 0.696; with BMX-IN-1 + OSI-027 (first compound 2 µM), 0.732; with PAC-1 + Vorinostat (first compound 0.02 µM), 0.902; in the test with PAC-1 + Vorinostat (first compound 0.06325 µM), 0.846; with PAC-1 + Vorinostat (first compound 0.2 µM), 0.941. Moreover, the relative viability in the test with PAC-1 + Vorinostat (first compound 2 µM) is 0.862.

Turning to LCLC-97TM1, the relative viability with Ibrutinib + Tozasertib (first compound 0.005 µM) turned out to be 0.601; with Ibrutinib + Tozasertib (first compound 0.01581 µM), 0.426; with Ibrutinib + Tozasertib (first compound 0.05 µM), 0.216; with Ibrutinib + Tozasertib (first compound 0.1581 µM), 0.241; with Ibrutinib + Tozasertib (first compound 0.5 µM), 0.224; with BMX-IN-1 + OSI-027 (first compound 0.02 µM) it was 0.585. Also, the relative viability is 0.66 with BMX-IN-1 + OSI-027 (first compound 0.2 µM); 0.542 with BMX-IN-1 + OSI-027 (first compound 0.6325 µM); 0.628 in the test with BMX-IN-1 + OSI-027 (first compound 2 µM); 0.206 with PAC-1 + Pictilisib (first compound 0.06325 µM); 0.178 with PAC-1 + Pictilisib (first compound 0.2 µM); 0.231 with PAC-1 + Pictilisib (first compound 2 µM). Also, the relative viability worked out at 0.776 with PAC-1 + Vorinostat (first compound 0.02 µM), 0.805 in the test with PAC-1 + Vorinostat (first compound 0.06325 µM) and 0.761 in the test with PAC-1 + Vorinostat (first compound 2 µM).

Values taken from the supplement of paper PMC10307832.
